In ChEMBL document CHEMBL5576068, “Design, synthesis, and biological antitumor evaluation of tetrahydroisoquinoline derivatives” (Bioorg Med Chem Lett, 2024) one finds inhibition and IC50 data, which are given here for 31 compounds.

Some results are limits rather than exact numbers.

Assay [1] has as its system HCT-116. The assay is described as follows: Cytotoxicity against human HCT-116 cells assessed as cell inhibition rate at 40 uM by CCK8 assay relative to control. It counts as functional. Background: Formazan colour is commonly taken as a measure of viable cells.
Assay [2] relates to MDA-MB-231. The assay is described as follows: Cytotoxicity against human MDA-MB-231 cells assessed as cell inhibition rate at 40 uM by CCK8 assay relative to control. It counts as functional.
Assay [3] deals with HepG2. As to the kind of experiment: Cytotoxicity against human HepG2 cells assessed as cell inhibition rate at 40 uM by CCK8 assay relative to control. Type of assay: functional.
The test system of assay [4] is A-375. As to the kind of experiment: Cytotoxicity against human A-375 cells assessed as cell inhibition rate at 40 uM by CCK8 assay relative to control. Type of assay: functional.
Assay [5] concerns HCT-116. The assay is described as follows: Cytotoxicity against human HCT-116 cells measured for 48 hrs. It counts as functional, cell-based. As to conditions: HCT-116, 48 h.
Assay [6] deals with MDA-MB-231. The assay is described as follows: Cytotoxicity against human MDA-MB-231 cells measured for 48 hrs. It counts as functional, cell-based. As to conditions: MDA-MB-231, 48 h.
Assay [7] relates to HepG2. The assay is described as follows: Cytotoxicity against human HepG2 cells measured for 48 hrs. It counts as functional, cell-based. As to conditions: HepG2, 48 h.
For assay [8], the system named is A-375. As to the kind of experiment: Cytotoxicity against human A-375 cells measured for 48 hrs. Type of assay: functional, cell-based. As to conditions: A-375, 48 h.

Take `COc1cc2c(cc1OC)CN(C)CC2`: the inhibition at 40 µM in assay [1] was 25.2%; in assay [2], 30.7%; in assay [3] it was 20.6%; in assay [4] it was 27.4%.
Regarding `CN1CCc2cc3c(cc2C1)OCO3`, the inhibition at 40 µM came to 18.2% in assay [1], 14.5% in assay [2], 26.8% in assay [3] and 22.5% in assay [4].
The corresponding values for `COc1cc2c(cc1OCc1ccccc1)CN(C)CC2` are 32.9%, 30.2%, 16.3% and 14.7%.
With `COc1cc2c(cc1OCc1ccccc1)C[N+](C)(Cc1ccc(Oc3ccc(-c4ccc(C#N)cc4)cc3)nc1)CC2` (centres undefined), the IC50 in assay [5] was 7.5 µM; in assay [6], over 20 µM; in assay [7], 3.8 µM; in assay [8], 9.7 µM.
Regarding `COc1cc2c(cc1OCc1ccccc1)C[N+](C)(Cc1ccc([N+](=O)[O-])nc1)CC2` (centres undefined), the inhibition at 40 µM in assay [1] is 26.6%; in assay [2], 10.1%; in assay [3], 22.6%; in assay [4], 16.1%.
Regarding `C[N+]1(Cc2ccc(Br)nc2)CCc2cc3c(cc2C1)OCO3` (centres undefined), the inhibition at 40 µM in assay [1] amounted to 29.2%; in assay [2], 23.2%; in assay [3], 19.8%; in assay [4], 9.69%.
With `COc1cc2c(cc1OCc1ccccc1)C[N+](C)(Cc1ccc(Oc3ccc(Oc4ccccc4)cc3)nc1)CC2` (centres undefined), the IC50 is 11.6 µM in assay [5], 12.6 µM in assay [6], 12.6 µM in assay [7] and 7.6 µM in assay [8].
Consider `COc1cc2c(cc1OCc1ccccc1)C[N+](C)(Cc1ccc(Oc3ccc(Oc4ccc(C(F)(F)F)cc4)cc3)nc1)CC2` (centres undefined), for which the IC50 in assay [5] was 4.1 µM; in assay [6], 9.8 µM; in assay [7] it was 4.1 µM; in assay [8] it was 6.1 µM.
Consider `CCCCC[C@H]1CC[C@H](c2ccc(Oc3ccc(C[N+]4(C)CCc5cc(OC)c(OCc6ccccc6)cc5C4)cn3)cc2)CC1` (some centres undefined), for which the IC50 was found to be 9 µM in assay [5], 11.4 µM in assay [6], 11.6 µM in assay [7] and 8.7 µM in assay [8].
Turning to `COc1cc2c(cc1OCc1ccccc1)C[N+](C)(Cc1ccc(Oc3ccc(OC(C)C)cc3)nc1)CC2` (centres undefined), the IC50 in assay [5] was 19.3 µM; in assay [6], over 20 µM; in assay [7], 9.67 µM; in assay [8], 13.5 µM.
The corresponding values for `COc1cc2c(cc1OCc1ccccc1)C[N+](C)(Cc1ccc(Nc3ccccc3[N+](=O)[O-])nc1)CC2` (centres undefined) are 4.6 µM, 10 µM, 4.8 µM and 7.6 µM.
The corresponding values for `COc1cc2c(cc1OCc1ccccc1)C[N+](C)(Cc1ccc(Oc3ccc(C4CC4)cc3)nc1)CC2` (centres undefined) are over 20 µM, 12.5 µM, 19.2 µM and 15.7 µM.
As for `CCCCN(CCCC)c1ccc(Oc2ccc(C[N+]3(C)CCc4cc(OC)c(OCc5ccccc5)cc4C3)cn2)cc1` (centres undefined), the IC50 in assay [5] is 10.5 µM; in assay [6], over 20 µM; in assay [7], 10 µM; in assay [8] it was 10.3 µM.
On to `COc1cc2c(cc1OCc1ccccc1)C[N+](C)(Cc1ccc(Oc3cc(Cl)ccc3Oc3ccc(Cl)cc3Cl)nc1)CC2` (centres undefined), for which the IC50 was determined as 4.5 µM in assay [5], 9.3 µM in assay [6], 4.7 µM in assay [7] and 5.4 µM in assay [8].
Turning to `COc1cc2c(cc1OCc1ccccc1)C[N+](C)(Cc1ccc(Oc3ccc(/N=N/c4ccccc4)cc3)nc1)CC2` (centres undefined), the IC50 in assay [5] was 11.6 µM; in assay [6], 13.3 µM; in assay [7], 13.1 µM; in assay [8], 5.5 µM.
In the case of `COc1cc2c(cc1OCc1ccccc1)C[N+](C)(Cc1cnc3ccccc3c1)CC2` (centres undefined), the inhibition at 40 µM in assay [1] stood at 8.29%; in assay [2] it was 7.43%; in assay [3], 6.8%; in assay [4] it was 13.9%.
On to `COc1cc2c(cc1OCc1ccccc1)C[N+](C)(Cc1ccc(Oc3ccc(SC(F)(F)F)cc3)nc1)CC2` (centres undefined), for which the IC50 in assay [5] is 13.4 µM; in assay [6], 15.3 µM; in assay [7], 14.6 µM; in assay [8], 11.6 µM.
As for `COc1cc2c(cc1OCc1ccccc1)C[N+](C)(Cc1ccc(Br)nc1)CC2` (centres undefined), the inhibition at 40 µM amounted to 20.7% in assay [1], 17.4% in assay [2], 27.3% in assay [3] and 22.2% in assay [4].
As for `COc1cc2c(cc1OCc1ccccc1)C[N+](C)(Cc1ccc(Oc3ccc(C45CC6CC(CC(C6)C4)C5)cc3)nc1)CC2` (centres undefined), the IC50 in assay [5] turned out to be 2.5 µM; in assay [6], 4.6 µM; in assay [7] it was 4.2 µM; in assay [8], 12.4 µM.
Consider `COc1cc2c(cc1OCc1ccccc1)C[N+](C)(Cc1ccccn1)CC2` (centres undefined), for which the inhibition at 40 µM stood at 11.6% in assay [1], 9.61% in assay [2], 18.9% in assay [3] and 13.7% in assay [4].
On the same counts, the results for `COc1cc2c(c(OC)c1OC)CC[N+](C)(Cc1ccc(Br)nc1)C2` (centres undefined) are 53.4%, 35.1%, 60.6% and 24.8%.
`COc1cc2c(cc1OCc1ccccc1)C[N+](C)(Cc1ccc(Br)cn1)CC2` (centres undefined): the inhibition at 40 µM was 16% in assay [1], 23.7% in assay [2], 27.8% in assay [3] and 31.2% in assay [4].
As to `COc1cc2c(cc1OCc1ccccc1)C[N+](C)(Cc1ccc(Oc3ccc(C4CCC(=O)CC4)cc3)nc1)CC2` (centres undefined), the IC50 in assay [5] was 18.7 µM; in assay [6] it was 12.4 µM; in assay [7], over 20 µM; in assay [8], 17.9 µM.
Consider `COc1cc2c(cc1OCc1ccccc1)C[N+](C)(Cc1ccc3ccccc3n1)CC2` (centres undefined), for which the inhibition at 40 µM in assay [1] was found to be 3.2%; in assay [2], 2.75%; in assay [3] it was 7.43%; in assay [4] it was 13%.
Regarding `COc1cc2c(cc1OCc1ccccc1)C[N+](C)(Cc1ccc(Oc3ccc(OCc4ccccc4)cc3)nc1)CC2` (centres undefined), the IC50 was 8.9 µM in assay [5], 12.4 µM in assay [6], 6.8 µM in assay [7] and 11.6 µM in assay [8].
With `COc1cc2c(cc1O)C[N+](C)(Cc1ccc(Br)nc1)CC2` (centres undefined), the inhibition at 40 µM in assay [1] was 34.5%; in assay [2] it was 34.4%; in assay [3] it was 15%; in assay [4] it was 12.3%.
For `COc1cc2c(cc1OCc1ccccc1)C[N+](C)(Cc1ccc(Oc3cc(C(F)(F)F)ccc3F)nc1)CC2` (centres undefined), the IC50 is 18.6 µM in assay [5], 17.3 µM in assay [6], 12.4 µM in assay [7] and 12.5 µM in assay [8].
As for `COc1cc2c(c(OC)c1OC)CCN(C)C2`, the inhibition at 40 µM in assay [1] turned out to be 18.2%; in assay [2], 52%; in assay [3] it was 9.18%; in assay [4], 22.3%.
For the compound `COc1cc2c(cc1OC)C[N+](C)(Cc1ccc(Br)nc1)CC2` (centres undefined), the inhibition at 40 µM in assay [1] was determined as 18.4%; in assay [2], 30.5%; in assay [3], 19.8%; in assay [4] it was 41.1%.
The corresponding values for `COc1cc2c(cc1OCc1ccccc1)C[N+](C)(Cc1ccnc3ccccc13)CC2` (centres undefined) are 12.1%, 8.29%, 11.7% and 9.33%.
`COc1ccc2c(c1OC)C(=O)O[C@@H]2[C@H]1c2c(cc3c(c2OC)OCO3)CCN1C` [NOSCAPINE]: the IC50 amounted to 154 µM in assay [5], 120 µM in assay [6], 120 µM in assay [7] and 180 µM in assay [8].

As usually defined, the inhibition is how much of the control response was suppressed. For orientation: IC50 means the midpoint of a concentration-inhibition curve.
